Test results as given in ChEMBL document CHEMBL1137757, “Combinatorial chemistry in the agrosciences” (Bioorg Med Chem, 2009).

What was measured:
[1] = Inhibition of Arabidopsis 4-hydroxyphenylpyruvate dioxygenase
[2] = molecular target: 4-hydroxyphenylpyruvate dioxygenase (Rattus norvegicus, UniProt P32755); assay: Inhibition of rat 4-hydroxyphenylpyruvate dioxygenase
[3] = Inhibition of anthranilate synthase

Chain of 4-hydroxyphenylpyruvate dioxygenase (P32755 whole entry): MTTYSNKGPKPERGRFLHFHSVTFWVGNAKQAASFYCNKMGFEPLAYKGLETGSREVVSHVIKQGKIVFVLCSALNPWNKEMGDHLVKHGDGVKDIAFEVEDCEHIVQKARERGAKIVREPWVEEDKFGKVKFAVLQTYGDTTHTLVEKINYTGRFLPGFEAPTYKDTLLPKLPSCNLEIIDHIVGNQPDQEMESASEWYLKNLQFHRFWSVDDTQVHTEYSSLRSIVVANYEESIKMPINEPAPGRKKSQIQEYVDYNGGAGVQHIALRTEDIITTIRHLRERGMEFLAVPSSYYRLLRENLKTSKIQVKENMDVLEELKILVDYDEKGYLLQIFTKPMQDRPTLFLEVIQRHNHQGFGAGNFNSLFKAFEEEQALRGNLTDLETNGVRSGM

| IC50 [1] | IC50 [2] | IC50 [3] | SMILES |
| --- | --- | --- | --- |
| 20 nM | 3.9 µM |  | O=C(NCCCCC1C(=O)/C(=C(\O)C2CC2)C(=O)N1Cc1ccc(F)cc1)c1ccc(Cl)nc1 (stereo unspecified) |
|  |  | 3.2 µM | O=C(O)c1cccc(/C(=N/OCCc2ccc(Cl)cc2)c2cccc(C(F)(F)F)c2)c1 |
| 158 nM | ≥ 10 µM |  | O=C(NCCCCC1C(=O)/C(=C(\O)C2CCC2)C(=O)N1Cc1ccccc1)Nc1cccc(Cl)c1 (stereo unspecified) |
|  |  | 3.2 µM | O=C(O)COc1ccccc1/C=N/OCc1cc(Cl)ccc1Cl |
